Source: patent US20250327097A1, “ORGANISMS PRODUCING LESS CROTONIC ACID” (Global Bioenergies, priority 2021, published 2025)

Columns and labels:
TaFdcV = test: Acid binding and cycloadduct formation with TaFdcV (UV-Vis, ESI-MS, co-crystallization)
Procedure: TaFdcV (500 μL, 0.45 mM protein, 25 mM HEPES, 150 mM KCl, pH 6.8) was incubated with crotonic or 2-butynoic acid. The formation of the prFMN-crotonic acid cycloadduct was followed by UV-Vis spectroscopy and additional acid were added until full conversion (complete loss of the 380 nm peak). The protein was desalted to 25 mM HEPES, 150 mM KCl, pH 6.8 and plated for crystal trials.

AnFdc = AnFdc (Aspergillus niger, UniProt A2QHE5); test: Quantitative GC assay of pentene production from hexenoic acid; assay type: biochemical
[1] = tested on: ferulic acid decarboxylase (FDC); test: Inhibition of ferulic acid decarboxylase; assay type: biochemical
From the text: In recombinant organisms or microorganisms, 3-methylcrotonic acid, the substrate of FDC, can be produced from acetyl-CoA in a multistep enzymatic process. The final conversion of 3-methylcrotonic acid into isobutene can be carried out in the same recombinant organism or microorganism that has been used for the production of 3-methylcrotonic acid. In such a one-step process, it is required that the recombinant organism or microorganism encodes the enzyme FDC. Alternatively, isobutene may be produced from 3-methylcrotonic acid in a two-step process. For that, a fermentation culture medium of a recombinant organism or microorganism comprising the produced 3-methylcrotonic acid may be contacted with a recombinant organism or microorganism encoding the enzyme FDC in an in vivo or in vitro biotransformation reaction. In an alternative two-step process, a first recombinant organism or microorganism may be used to convert acetyl-CoA into 3-hydroxyisovaleric acid and the produced 3-hydroxyisovaleric acid may then be converted into isobutene by a second recombinant organism or microorganism (via 3-methylcrotonic acid and FDC).

TaFdc = test: Acid binding and cycloadduct formation with TaFdc wild-type (UV-Vis)
AnFdcII = AnFdcII (Aspergillus niger, UniProt A2QHE5, P438W/R435P/T395M); assay type: binding
AnFdc wild-type = AnFdc wild-type (Aspergillus niger, UniProt A2QHE5); test: Crotonic acid binding by UV-Vis spectra, AnFdc wild-type; details: 2-h incubation
crotonyl-CoA = test: Coupled assay positive control: purified FabV with crotonyl-CoA; assay type: biochemical, Treponema denticola; details: 1 mM crotonyl-CoA, 100 μg/ml FabV, 18 h at 34° C.
Procedure: The acid-CoA ligases were tested as purified enzymes with a coupled assay using purified FabV from Treponema denticola (EC 1.3.1.44) (Uniprot Accession No: Q73Q47) (to convert crotonyl-CoA to butyryl-CoA). The reaction was carried out as follows: 50 μg/ml acid-CoA ligase and 100 μg/ml FabV with a buffered solution containing 100 mM Tris-HCl pH7.5, 20 mM NaCl, 100 mM KCl, 2 mM MgCl2, 1 mM crotonic acid (TCI chemicals), 1 mM ATP (Sigma-Aldrich), 1 mM coenzyme A (Sigma-Aldrich) and 1 mM NADH (Sigma-Aldrich) were incubated 18 h at 34° C. in a water bath, and the reaction was stopped with acetonitrile. […] The produced butyryl-CoA (Sigma-Aldrich) and the consumed crotonic acid (TCI chemicals) were quantified by HPLC with a calibration curve. The samples were injected on a Zorbax SB-Aq column (Agilent) at 30° C. and eluted with 8.4 mM H2SO4 and a gradient of acetonitrile.
The CoA-transferase was tested as purified enzyme with a coupled assay using purified FabV from Treponema denticola (EC 1.3.1.44) (Uniprot Accession No: Q73Q47) (to convert crotonyl-CoA to butyryl-CoA). […] The produced butyryl-CoA (Sigma-Aldrich) and the consumed crotonic acid (TCI chemicals) were quantified by HPLC with a calibration curve. […]

3-methylcrotonic acid = test: Initial in vivo screening of Fdc homologues co-expressed with UbiX for 3-methylcrotonic acid decarboxylation (isobutene by GC); assay type: cell-based, E. coli; details: isobutene in headspace from 10 mM 3-methylcrotonic acid; Fdc (MCS1, N-terminal 6His-tag) and UbiX (MCS2) in pETDuet

In the case of `CC#CC(=O)O` [2-butynoic acid], the “binding to TaFdcV, UV-Vis spectrum after desalting” value (“binding to TaFdcV, UV-Vis spectrum” below) (TaFdcV) is reported as “covalent inhibitory adduct is formed” and the “state of the adduct by ESI-MS and co-crystallization” value (TaFdcV) is reported as “stalls as Int1”.

For `CCCC=CC(=O)O` [2-hexenoic acid], the “pentene production from hexenoic acid” value (AnFdc) was “limited to a single turnover”, the “binding to TaFdcV, UV-Vis spectrum” value (TaFdcV) was “irreversibly binds” and the “inhibition of FDC” value [1] was “irreversible inhibitors”. For the same molecule, the “binding to TaFdc, UV-Vis spectrum after desalting” value (TaFdc) was “irreversibly binds”.

In the case of `CCC=CC(=O)O` [2-pentenoic acid], the “binding to TaFdcV, UV-Vis spectrum” value (TaFdcV) is reported as “irreversibly binds”, the “inhibition of FDC” value [1] is reported as “irreversible inhibitors” and the “binding to TaFdc, UV-Vis spectrum after desalting” value (TaFdc) is reported as “irreversibly binds”.

In the case of `C/C=C/C(=O)O` [crotonic acid], the “binding to TaFdcV, UV-Vis spectrum” value (TaFdcV) is reported as “covalent inhibitory adduct is formed”, the “binding by UV-Vis spectra” value (AnFdcII) is reported as “readily bind the inhibitor” and the “binding by UV-Vis spectra” value (AnFdc wild-type) is reported as “cannot be detected”. For the same molecule, the “inhibition of FDC” value [1] was “irreversible inhibitors”.

B1: FabV: purified FabV from Treponema denticola (EC 1.3.1.44), Uniprot Q73Q47 (protein, listed as Treponema denticola)
chain: MIVKPMVRNNICLNAHPQGCKKGVEDQIEYTKKRITAEVKAGAKAPKNVLVLGCSNGYGLASRITAAFGYGAATIGVSFEKAGSETKYGTPGWYNNLAFDEAAKREGLYSVTIDGDAFSDEIKAQVIEEAKKKGIKFDLIVYSLASPVRTDPDTGIMHKSVLKPFGKTFTGKTVDPFTGELKEISAEPANDEEAAATVKVMGGEDWERWIKQLSKEGLLEEGCITLAYSYIGPEATQALYRKGTIGKAKEHLEATAHRLNKENPSIRAFVSVNKGLVTRASAVIPVIPLYLASLFKVMKEKGNHEGCIEQITRLYAERLYRKDGTIPVDEENRIRIDDWELEEDVQKAVSALMEKVTGENAESLTDLAGYRHDFLASNGFDVEGINYEAEVERFDRI
modifications: FabV
notes: purified FabV from Treponema denticola (EC 1.3.1.44), Uniprot Q73Q47
In the case of B1, the “conversion of crotonyl-CoA to butyryl-CoA” value (crotonyl-CoA) is reported as “could convert all of it to butyryl-CoA”.

B2: ScFdc-UbiX: Fdc homologue, Uniprot Q03034, co-expressed with UbiX in pETDuet (protein, UniProt Q03034 1-503, looked up)
Ferulic acid decarboxylase 1: MRKLNPALEFRDFIQVLKDEDDLIEITEEIDPNLEVGAIMRKAYESHLPAPLFKNLKGASKDLFSILGCPAGLRSKEKGDHGRIAHHLGLDPKTTIKEIIDYLLECKEKEPLPPITVPVSSAPCKTHILSEEKIHLQSLPTPYLHVSDGGKYLQTYGMWILQTPDKKWTNWSIARGMVVDDKHITGLVIKPQHIRQIADSWAAIGKANEIPFALCFGVPPAAILVSSMPIPEGVSESDYVGAILGESVPVVKCETNDLMVPATSEMVFEGTLSLTDTHLEGPFGEMHGYVFKSQGHPCPLYTVKAMSYRDNAILPVSNPGLCTDETHTLIGSLVATEAKELAIESGLPILDAFMPYEAQALWLILKVDLKGLQALKTTPEEFCKKVGDIYFRTKVGFIVHEIILVADDIDIFNFKEVIWAYVTRHTPVADQMAFDDVTSFPLAPFVSQSSRSKTMKGGKCVTNCIFRQQYERSFDYITCNFEKGYPKGLVDKVNENWKRYGYK
modifications: co-expressed with UbiX
notes: Fdc homologue, Uniprot Q03034, co-expressed with UbiX in pETDuet
B2 was tested, and the “ppm Average” value (3-methylcrotonic acid) was 17.6 ppm.

B3: CdFdc-UbiX: Fdc homologue, Uniprot B9WJ66, co-expressed with UbiX in pETDuet (protein, UniProt B9WJ66 1-513, looked up)
Ferulic acid decarboxylase 1: MSLNPALKFRDFIQVLKNEGDLIEIDTEVDPNLEVGAITRKAYENKLAAPLFNNLKQDPENIDPKNLFRILGCPGGLRGFGNDHARIALHLGLDSQTPMKEIIDFLVANRNPKKYIPPVLVPNDQSPHKKHHLTKEQIDLTKLPVPLLHHGDGGKFIQTYGMWVLQTPDKSWTNWSIARGMVHDSKSITGLVINPQHVKQVSDAWVAAGKGDKIPFALCFGVPPAAILVSSMPIPDGATEAEYIGGLCNQAVPVVKCETNDLEVPADCEMVFEGYLDRDTLVREGPFGEMHGYCFPKDHHTQPLYRVNHISYRDQAIMPISNPGLCTDETHTLIGGLVSAETKYLISQHPVLSKIVEDVFTPYEAQALWLAVKINTHELVKLKTNAKELSNLVGDFLFRSKECYKVCSILHEIILVGDDIDIFDFKQLIWAYTTRHTPVQDQLYFDDVKPFALAPFASQGPLIKTRQGGKCVTTCIFPKQFTDPDFEFVTCNFNGYPEEVKNKISQNWDKYYK
modifications: co-expressed with UbiX
notes: Fdc homologue, Uniprot B9WJ66, co-expressed with UbiX in pETDuet
For B3, the “ppm Average” value (3-methylcrotonic acid) was 4.8 ppm.

B4: UbiX alone: UbiX (E. coli K-12) expressed without Fdc, control (protein, UniProt P0AG03 1-189, looked up)
Flavin prenyltransferase UbiX: MKRLIVGISGASGAIYGVRLLQVLRDVTDIETHLVMSQAARQTLSLETDFSLREVQALADVTHDARDIAASISSGSFQTLGMVILPCSIKTLSGIVHSYTDGLLTRAADVVLKERRPLVLCVRETPLHLGHLRLMTQAAEIGAVIMPPVPAFYHRPQSLDDVINQTVNRVLDQFAITLPEDLFARWQGA
In the case of B4, the “ppm Average” value (3-methylcrotonic acid) is reported as 3.3 ppm.
